Test results published in patent publication US20230255881A1, “METHOD OF RAPIDLY ACHIEVING THERAPEUTIC CONCENTRATIONS OF TRIPTANS FOR TREATMENT OF MIGRAINES AND CLUSTER HEADACHES” (Emergex USA Corporation, priority 2017, published 2023).
≈ marks a conversion by molar mass, not a printed value. Like-named read-outs stand apart in the source and are kept apart here. Each block holds one compound with its values, some of them ahead of it.

Experiments:
clinical = conditions: human, in vivo
Method: The final treatment administered was 3.8 mg on a 10 cm^2 patch using an applicator with 0.52 Joule of application energy in the intracutaneous microneedle system described herein. The products tested were:
(§1) The array was applied to the center of a 5 cm^2 tan adhesive backing to form the patch. The patch was attached to the interior of a white to off-white polycarbonate ring co-molded with a desiccant, and this patch assembly was packaged in a foil pouch.
as §1
The array was applied to the center of a 10 cm^2 tan adhesive backing to form the patch. The patch was attached to the interior of a white to off-white polycarbonate ring co-molded with a desiccant, and this patch assembly was packaged in a foil pouch.
This was a single-center, open-label, randomized five-way crossover study (Part 1) followed by a sequential study of two additional treatments (Parts 2 and 3). After obtaining informed consent and establishing eligibility, each subject received each of the seven study treatments once, followed by in-clinic monitoring and extensive blood sample collection for pharmacokinetic analysis. […] Plasma samples from the initial dosing days were sent to the analytical laboratory for analysis, and tolerability for each of the dose levels was summarized. […] During Part 3, subjects received a single 3.8 mg patch (applied with a 0.52 J applicator) and also completed identical procedures to the previous dosing days. After completion of the seven dosing days, subjects were assessed one final time and dismissed from the study.
Twenty subjects were enrolled in the study, 10 males and 10 females. The subjects mean age was 29 years±3.5 years with a mean BMI of 24.4±3.5.
PK parameters were summarized by treatment group using descriptive statistics (arithmetic means, standard deviations, coefficients of variation, sample size, minimum, maximum, and median).
Graphs of apparent dose linearity and proportionality of PK parameters (AUCt, AUCinf and Cmax) were compiled.

[1] = cited from earlier work; for AUC0-last: Seaber1997
[2] = Solubility of zolmitriptan in 0.1 M acids at 2-8° C.; assay type: physicochemical; conditions: de-ionized water
Excerpt: The suspension was then centrifuged.

[3] = In vivo pig study: zolmitriptan distribution in skin by quantitative mass-spectrometry imaging; conditions: swine skin after 1-hour ADAM wear
Excerpt: Evidence of zolmitriptan diffusion within the skin was obtained by quantitative mass-specetrometry imaging. Analyses of the surface area of the stratum corneum, epidermis, and dermis indicate that the largest amount of zolmitriptan localized to the dermis.

5HT1B/1D = conditions: relative to zolmitriptan; cited from earlier work

AUC0-last Dose (clinical; sc, 6 mg): 16.8 ng·h/mL/mg
SMILES: CNS(=O)(=O)Cc1ccc2[nH]cc(CCN(C)C)c2c1 [SC Suma]

SMILES: CNS(=O)(=O)Cc1ccc2[nH]cc(CCN(C)C)c2c1 [Sumatriptan]
Tmax ([1]; marketed dosage form): about 2 hours
bioavailability ([1]; oral administration): about 15%

Solubility [2]: 1300 µg/mL (≈ 4.52 mM)
Percentage of Total Zolmitriptan ([3]; Dermis/hypodermis): 95.5
Percentage of Total Zolmitriptan ([3]; Epidermis): 2.7
Percentage of Total Zolmitriptan ([3]; Stratum corneum): 1.8
SMILES: CN(C)CCc1c[nH]c2ccc(C[C@H]3COC(=O)N3)cc12 [Zolmitriptan, zolmitriptan]

AUCinf (clinical; both, po, 2.5 mg): 27.19 ng · H/mL
Cmax (clinical; both, po, 2.5 mg): 3.77 ng/mL
Tmax (clinical; both, po, 2.5 mg): 1.79 h
AUC(0-t) (clinical; both, po, 2.5 mg, AUC2 hrs): 4.72 ng·h/mL
AUC(0-t) (clinical; both, po, 2.5 mg, AUCt): 22.2 ng·h/mL
SMILES: CN(C)CCc1c[nH]c2ccc(C[C@H]3COC(=O)N3)cc12 [Zolmitriptan oral tablet]

SMILES: CN(C)CCc1c[nH]c2ccc(C[C@H]3COC(=O)N3)cc12 [Zolmitriptan 10 mg oral, zolmitriptan]
AUC0-last ([1]; females (F)): 108.6 ng·h/mL
AUC0-last ([1]; males (M)): 84.4 ng·h/mL

SMILES: CNCCc1c[nH]c2ccc(C[C@H]3COC(=O)N3)cc12 [N-desmethyl zolmitriptan]
metabolite concentrations relative to zolmitriptan ([1]; after zolmitriptan administration): about two-thirds
5HT1B/1D potency, times that of the parent (5HT1B/1D): 2 to 6 times

t1/2 (clinical; sc): 1.14 H
SMILES: CNS(=O)(=O)Cc1ccc2[nH]cc(CCN(C)C)c2c1 [Sumatriptan SC]

AUC0-last Dose (clinical; po, 2.5 mg): 8.6 ng·h/mL/mg
SMILES: CN(C)CCc1c[nH]c2ccc(C[C@H]3COC(=O)N3)cc12 [Oral Zolmi]
